Measured values published in ChEMBL document CHEMBL1129977, “Antitumor agents. 172. Synthesis and biological evaluation of novel deacetamidothiocolchicin-7-ols and ester analogs as antitubulin agents” (J Med Chem, 1997).

Assays:
[1] = biological target: Tubulin; experiment: Inhibition of Tubulin polymerization after 20 minutes of administration at 30 degree Centigrade; format: functional, organism-based
[2] = biological target: Tubulin alpha chain (Sus scrofa) (UniProt P02550); experiment: Binding affinity of [3H]- colchicine (5.0 uM) to tubulin (1.0 uM, 0.1 mg/mL) was evaluated at concentration of 50 uM
Chain of Tubulin alpha chain (Sus scrofa) (P02550 whole entry, looked up): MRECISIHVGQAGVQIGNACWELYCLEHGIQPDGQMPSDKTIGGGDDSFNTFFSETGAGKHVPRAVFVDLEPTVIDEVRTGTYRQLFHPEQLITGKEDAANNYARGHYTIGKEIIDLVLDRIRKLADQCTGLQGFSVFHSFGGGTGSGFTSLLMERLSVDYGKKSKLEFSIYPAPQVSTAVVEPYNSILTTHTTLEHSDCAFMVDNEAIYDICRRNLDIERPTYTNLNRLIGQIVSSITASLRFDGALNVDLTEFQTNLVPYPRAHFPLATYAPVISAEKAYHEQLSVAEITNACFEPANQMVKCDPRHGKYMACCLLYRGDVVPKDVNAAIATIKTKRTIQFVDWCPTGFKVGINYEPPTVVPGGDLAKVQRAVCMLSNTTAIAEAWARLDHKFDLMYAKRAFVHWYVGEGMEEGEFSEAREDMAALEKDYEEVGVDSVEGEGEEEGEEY

[3] = biological target: Tubulin alpha chain (Sus scrofa) (UniProt P02550); settings: at 5 µM
[4] = tested on: CA46; experiment: Inhibits the growth of the human Burkitt lymphoma CA46 cell; format: functional, cell-based

| Compound | IC50 [1] [µM] | inhibition [2] [%] | inhibition [3] [%] | IC50 [4] [µM] |
| --- | --- | --- | --- | --- |
| COc1cc2c(c(OC)c1OC)-c1ccc(SC)c(=O)cc1C(OC(=O)c1cccnc1)CC2 (centres undefined) | 0.88 |  |  |  |
| COc1cc2c(c(OC)c1OC)-c1ccc(SC)c(=O)cc1C(OC(=O)c1ccncc1)CC2 (centres undefined) [listing 1 of 2 here] | 1.1 |  |  |  |
| COc1cc2c(c(OC)c1OC)-c1ccc(SC)c(=O)cc1[C@@H](OC(=O)C13CCC(C)(C(=O)O1)C3(C)C)CC2 (some centres undefined) | 1.4 |  |  |  |
| COc1cc2c(c(OC)c1OC)-c1ccc(SC)c(=O)cc1[C@H](O)CC2 |  | 73 | 16 |  |
| COc1cc2c(c(OC)c1OC)-c1ccc(SC)c(=O)cc1[C@@H](OC(=O)c1ccncc1)CC2 | 0.56 |  | 69 | 2.8 |
| COc1cc2c(c(OC)c1OC)-c1ccc(SC)c(=O)cc1C(=O)CC2 [THIOCOLCHICONE] | 0.76 |  | 70 | 18 |
| COc1cc2c(c(OC)c1OC)-c1ccc(SC)c(=O)cc1C(OC(=O)c1ccccc1)CC2 (centres undefined) | 1.4 |  |  |  |
| COc1cc2c(c(OC)c1OC)-c1ccc(SC)c(=O)cc1[C@H](OC(C)=O)CC2 |  | 74 | 11 | 40 |
| COc1cc2c(c(OC)c1OC)-c1ccc(SC)c(=O)cc1[C@@H](OC(=O)c1cccnc1)CC2 | 0.76 |  | 65 | 27 |
| COc1cc2c(c(OC)c1OC)-c1ccc(SC)c(=O)cc1[C@H](OC(=O)C13CCC(C)(C(=O)O1)C3(C)C)CC2 (some centres undefined) | 17 |  |  |  |
| COc1cc2c(c(OC)c1OC)-c1ccc(SC)c(=O)cc1C(OC(=O)c1ccncc1)CC2 (centres undefined) [listing 2 of 2 here] | 0.97 |  |  |  |
| CCCC(=O)OC1CCc2cc(OC)c(OC)c(OC)c2-c2ccc(SC)c(=O)cc21 (centres undefined) | 1.5 |  |  |  |
| COc1cc2c(c(OC)c1OC)-c1ccc(SC)c(=O)cc1[C@@H](OC(C)=O)CC2 |  |  | 79 | 3.4 |
| COc1cc2c(c(OC)c1OC)-c1ccc(SC)c(=O)cc1C(Br)CC2 (centres undefined) | 1.1 |  |  |  |
| CCCC(=O)O[C@H]1CCc2cc(OC)c(OC)c(OC)c2-c2ccc(SC)c(=O)cc21 | 0.85 |  | 66 | 29 |
| COc1cc2c(c(OC)c1OC)-c1ccc(SC)c(=O)cc1[C@@H](O)CC2 |  |  | 85 | 2.8 |
